Source: patent publication US7928099B2, “Pyrimido [4,5-D] azepine derivatives as 5-HT2c agonists” (Pfizer Inc, priority 2007, dated 2011)

Biological target: T1, human recombinant 5-HT2c receptor (Homo sapiens, UniProt P28335)
T1 construct: expressed in transfected cells; host or cells: CHO K1 (Chinese hamster ovary), stably transfected
T1 sequence (P28335 33-458): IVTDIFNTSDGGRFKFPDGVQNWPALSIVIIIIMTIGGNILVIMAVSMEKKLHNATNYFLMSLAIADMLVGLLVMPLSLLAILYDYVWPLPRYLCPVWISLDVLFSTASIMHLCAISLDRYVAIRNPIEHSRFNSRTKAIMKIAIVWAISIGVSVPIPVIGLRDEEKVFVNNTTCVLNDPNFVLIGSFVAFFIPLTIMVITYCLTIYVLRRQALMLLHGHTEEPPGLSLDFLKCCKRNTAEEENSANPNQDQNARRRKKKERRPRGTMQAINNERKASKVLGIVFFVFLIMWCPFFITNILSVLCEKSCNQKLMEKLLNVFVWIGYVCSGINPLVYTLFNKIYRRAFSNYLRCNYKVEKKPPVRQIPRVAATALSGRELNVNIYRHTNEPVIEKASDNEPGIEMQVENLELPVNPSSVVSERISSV
Assay: FLIPR fluorescent Ca2+ mobilisation agonist assay in CHO K1 cells (Method 1)
Assay type: cell-based
Settings: for Emax: percentage of mean maximal response to 10 μM 5-HT; for EC50: agonist affinity, FLIPR
Protocol: The compounds of the invention were evaluated for biological activity by measuring the agonist affinity (EC50) and efficacy (Emax) at the human recombinant 5-HT2c receptor expressed in CHO K1 cells, using a fluorescent based Ca^2+ mobilisation assay format compatible with FLIPR technology (Method 1). Additionally, the binding activity of a compound was determined by measuring its affinity for the human recombinant 5-HT2c receptor membranes from Swiss 3T3 cells (Method 2).
The agonist affinity of the compounds were tested by measuring their ability to induce a fluorescent based Ca^2+ mobilization signal in a FLIPR assay using CHO K1 cells expressing recombinant human 5-HT2C receptor. Both agonist affinity (EC50) and efficacy (Emax) were determined.
Chinese hamster ovary cells (CHO K1) stably transfected with the 5-HT2c receptor were cultured under standard cell culture techniques. Specifically, cells were grown at 37° C. and 5% CO2 in Dulbecco's Modified Eagle's Medium (DMEM) culture media supplemented with 10% dialysed foetal calf serum (FCS), 1% non-essential amino acids, 1 mM sodium pyruvate, 800 μg/mL geneticin and 50 μg/ml zeocin. Cells were harvested for passaging and storage using trypsin-EDTA, centrifugation and resuspension in culture medium. Cells were grown to 60-80% confluency, harvested and adjusted to 15-20×10^6 cells/ml/vial in medium/10% DMSO and stored long-term at −80° C.
Cells were seeded into black-walled clear-bottomed 384 well plates 24 h before use. Frozen cells were defrosted in a 37° C. water bath and immediately transferred into 1 mL/vial 37° C. culture medium, diluted to 10 ml and DMSO removed by centrifugation. The cells were resuspended in 15 ml/vial of cell culture medium, counted and adjusted to give 500,000 cells/mL (10,000 cells/well). […] of cell suspension was added to the 384 well plates which were then incubated overnight at 37° C.
The maximum agonist response was determined with 5-HT at a final assay concentration of 10 μM in the diluent above. The minimum response was determined with Dulbeccos PBS (+CaCl2, +MgCl2) with 0.9% DMSO and 0.05% pluronic F-127. Test compounds, maximum and minimum controls were added to a 384 well polypropylene plate.
The FLIPR calcium assay reagent was diluted with assay buffer (Hank's Balanced Salt Solution (HBSS))/20 mM HEPES and 2.5 mM probenecid (diluted with 1M Sodium hydroxide and DPBS (+CaCl2, +MgCl2)).
20 μl/well FLIPR calcium assay reagent was added to the cell plates, which were incubated for 1 h at 37° C. Cell plates and compound plates were then transferred onto the FLIPR. The assay was run using the appropriate FLIPR program, which initiates the reaction by transferring 15 μL compound into the corresponding, well of the cell plate.
The statistical parameter exported from each well was the max peak height of the response.

Row | Structure (SMILES) | Emax (CHO-K1, efficacy) [%] | EC50 [nM] | Emax (efficacy) [%]
1 | CNc1nc(C(C)c2ccccc2)nc2c1CCNCC2 (centres unmarked) [Example 3, N-methyl-2-(1-phenylethyl)-6,7,8,9-tetrahydro-5H-pyrimido[4,5-d]azepin-4-amine] | – | – | 60.8
2 | Clc1ccc(Cc2ncc3c(n2)CCNCC3)cc1 [Example 57, 2-(4-Chlorobenzyl)-6,7,8,9-tetrahydro-5H-pyrimido[4,5-d]azepine] | 64.7 | 192 | –
3 | Fc1ccccc1Cc1ncc2c(n1)CCNCC2 [Example 60, 2(2-Fluorobenzyl)-6,7,8,9-tetrahydro-5H-pyrimido[4,5-d]azepine] | 65.1 | 194 | –
4 | c1ccc(Cc2nc3c(c(OCCc4ccccn4)n2)CCNCC3)cc1 [Example 73, 2-benzyl-4-(2-pyridin-2-ylethoxy)-6,7,8,9-tetrahydro-5H-pyrimido[4,5-d]azepine] | 83.3 | 8.61 | –
5 | N#Cc1ccc(CCOc2nc(Cc3ccccc3)nc3c2CCNCC3)cc1 [Example 75, 4-{2-[(2-benzyl-6,7,8,9-tetrahydro-5H-pyrimido-[4,5-d]azepin-4-yl)oxy]ethyl}-benzonitrile] | 90.1 | 58.1 | –
6 | CC(C)COc1nc(Cc2ccccc2)nc2c1CCNCC2 [Example 76, 2-benzyl-4-isobutoxy-6,7,8,9-tetrahydro-5H-pyrimido[4,5-d]azepine] | 34 | 127 | –
7 | Cc1ncccc1COc1nc(Cc2ccccc2)nc2c1CCNCC2 [Example 77, 2-benzyl-4-[(2-methyl-pyridin-3-yl)methoxy]-6,7,8,9-tetrahydro-5H-pyrimido[4,5-d]azepine] | 70.3 | 130 | –
8 | c1ccc(Cc2nc3c(c(OCCc4ccncc4)n2)CCNCC3)cc1 [Example 79, 2-benzyl-4-(2-pyridin-4-ylethoxy)-6,7,8,9-tetrahydro-5H-pyrimido[4,5-d]azepine] | 67.3 | 154 | –
9 | c1ccc(Cc2nc3c(c(OCC4CCOCC4)n2)CCNCC3)cc1 [Example 80, 2-benzyl-4-(tetrahydro-2H-pyran-4-ylmethoxy)-6,7,8,9-tetrahydro-5H-pyrimido[4,5-d]azepine] | 74.2 | 184 | –
10 | CC(C)(C)OCCOc1nc(Cc2ccccc2)nc2c1CCNCC2 [Example 81, 2-benzyl-4-(2-tert-butoxyethoxy)-6,7,8,9-tetrahydro-5H-pyrimido[4,5-d]azepine] | 60.3 | 195 | –
11 | FC(F)(F)CCCOc1nc(Cc2ccccc2)nc2c1CCNCC2 [Example 84, 2-benzyl-4-(4,4,4-trifluorobutoxy)-6,7,8,9-tetrahydro-5H-pyrimido[4,5-d]azepine] | 36.4 | 395 | –
12 | CN1CCC(COc2nc(Cc3ccccc3)nc3c2CCNCC3)CC1 [Example 85, 2-benzyl-4-[(1-methyl-piperidin-4-yl)methoxy]-6,7,8,9-tetrahydro-5H-pyrimido[4,5-d]azepine] | 86.3 | 421 | –
13 | c1ccc2c(c1)CCN(c1nc3c(c(N4CCSCC4)n1)CCNCC3)C2 [Example 88, 2-(3,4-dihydroisoquinolin-2(1H)-yl)-4-thiomorpholin-4-yl-6,7,8,9-tetrahydro-5H-pyrimido[4,5-d]-azepin-4-amine] | 67.6 | 838 | –
14 | c1ccc(CCNc2nc(N3CCSCC3)nc3c2CCNCC3)cc1 [Example 91, N-(2-phenylethyl)-2-thiomorpholin-4-yl-6,7,8,9-tetrahydro-5H-pyrimido-[4,5-d]azepin-4-amine] | 69.6 | 186 | –

The next lines start with results.

Row | Emax (CHO-K1, efficacy) [%] | EC50 [nM] | Structure (SMILES) | Emax (efficacy) [%]
15 | 67.1 | 125 | Fc1cccc(Cc2ncc3c(n2)CCNCC3)c1 [Example 61, 2-(3-Fluorobenzyl)-6,7,8,9-tetrahydro-5H-pyrimido[4,5-d]azepine] | –
16 | 63.1 | 100 | Cc1ccc(Cc2ncc3c(n2)CCNCC3)cc1 [Example 64, 2-(4-Methylbenzyl)-6,7,8,9-tetrahydro-5H-pyrimido[4,5-d]azepine] | –
17 | 86.7 | 17.1 | c1ccc(Cc2nc3c(c(OCC4CCCO4)n2)CCNCC3)cc1 (centres unmarked) [Example 74, 2-benzyl-4-(2-tetra-hydrofuran-2-ylmethoxy)-6,7,8,9-tetrahydro-5H-pyrimido[4,5-d]azepine] | –
18 | 69.5 | 138 | CN1CCC[C@H]1COc1nc(Cc2ccccc2)nc2c1CCNCC2 [Example 78, 2-benzyl-4-{[(2S)-1-methylpyrrolidin-2-yl]methoxy}-6,7,8,9-tetrahydro-5H-pyrimido[4,5-d]azepine] | –
19 | 71.9 | 304 | CC(CN1CCOCC1)Oc1nc(Cc2ccccc2)nc2c1CCNCC2 (centres unmarked) [Example 82, 2-benzyl-4-(1-methyl-2-morpholin-4-ylethoxy)-6,7,8,9-tetrahydro-5H-pyrimido[4,5-d]azepine] | –
20 | 45.7 | 338 | CC(COc1nc(Cc2ccccc2)nc2c1CCNCC2)N(C)C (centres unmarked) [Example 83, 1-[(2-benzyl-6,7,8,9-tetrahydro-5H-pyrimido-[4,5-d]azepin-4-yl)oxy]-N,N-dimethylpropan-2-amine] | –
21 | 57.1 | 48.3 | CCNc1nc(N2CCc3ccccc3C2)nc2c1CCNCC2 [Example 87, 2-(3,4-dihydroisoquinolin-2(1H)-yl)-N-ethyl-6,7,8,9-tetrahydro-5H-pyrimido-[4,5-d]azepin-4-amine] | –
22 | 48.2 | 33.6 | CCCCNc1nc(N2CCSCC2)nc2c1CCNCC2 [Example 89, N-butyl-2-thiomorpholin-4-yl-6,7,8,9-tetrahydro-5H-pyrimido[4,5-d]-azepin-4-amine] | –
23 | 77.3 | 90 | CCN(C)c1nc(N2CCSCC2)nc2c1CCNCC2 [Example 92, N-ethyl-N-methyl-2-thiomorpholin-4-yl-6,7,8,9-tetrahydro-5H-pyrimido-[4,5-d]azepin-4-amine] | –
24 | 77 | 11.5 | CNc1nc(N2CCSCC2)nc2c1CCNCC2 [Example 93, N-methyl-2-thio-morpholin-4-yl-6,7,8,9-tetrahydro-5H-pyrimido-[4,5-d]azepin-4-amine] | –
25 | 80.8 | 261 | C1Cc2nc(N3CCSCC3)nc(N3CCSCC3)c2CCN1 [Example 94, 2,4-dithiomorpholin-4-yl-6,7,8,9-tetrahydro-5H-pyrimido[4,5-d]azepine] | –
26 | 88.4 | 229 | CCN(C)c1nc(N2CCOCC2)nc2c1CCNCC2 [Example 95, N-ethyl-N-methyl-2-morpholin-4-yl-6,7,8,9-tetrahydro-5H-pyrimido-[4,5-d]azepin-4-amine] | –
27 | 66.9 | 311 | C1Cc2nc(N3CCOCC3)nc(N3CCSCC3)c2CCN1 [Example 96, 2-morpholin-4-yl-4-thio-morpholin-4-yl-6,7,8,9-tetrahydro-5H-pyrimido-[4,5-d]azepin-4-amine] | –
28 | 84.6 | 67.6 | CN(C)c1nc(N2CCOCC2)nc2c1CCNCC2 [Example 97, N,N-dimethyl-2-morpholin-4-yl-6,7,8,9-tetrahydro-5H-pyrimido-[4,5-d]azepin-4-amine] | –
29 | 69.5 | 103 | CCN(C)c1nc2c(c(NCC3CC3)n1)CCNCC2 [Example 99, N-4-(cyclopropylmethyl)-N-2-ethyl-N-2-methyl-6,7,8,9-tetrahydro-5H-pyrimido[4,5-d]azepin-4-amine] | –
30 | 51.2 | 122 | CCN(C)c1nc2c(c(N(C)C)n1)CCNCC2 [Example 100, N-2-ethyl-N-2,N-4,N-4-trimethyl-6,7,8,9-tetra-hydro-5H-pyrimido-[4,5-d]azepine-2,4-diamine] | –
